Measurements from PubChem BioAssay AID179 (DTP/NCI, 2004).
Active and inactive are the calls of the source.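 The calls were made as follows: active = compounds giving half or more protection of infected cells from virus-caused growth loss, again on retest; inactive = the rest.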 Where a SMILES comes first, the peptide text is derived from it. The star is where a group is joined. Cbz = O=C(OCc1ccccc1)*; Boc = CC(C)(C)OC(=O)*; Bn = c1ccc(C*)cc1

System: CEM cells HIV-1 protection, formazan growth assay
Assay: NCI AIDS Antiviral Assay
Conditions: for IC50: measured here: growth of uninfected CEM cells
Summary of the method: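 Human CEM cells, uninfected and HIV-1-infected, received five drug concentrations, and growth was read by soluble formazan assay. Compounds giving at least 50% protection were retested; reproducible 100% protection defined confirmed active.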

Structure (SMILES)	EC50 [µM]	IC50 [µM]	outcome
Cc1ccc(/C=C/C(=N/NC(=O)N/N=C(/C=C/c2ccc(C)cc2)C(C)(C)CN2CCCCC2)C(C)(C)CN2CCCCC2)cc1	> 200	3.02	
O=c1c(O)cccc2cc(O)c(O)c(O)c12	> 427	23.4	
Oc1ccc(/C=C/c2cc(O)cc3c2[C@@H](c2cc(O)cc(O)c2)C(c2ccc(O)cc2)O3)cc1 (some centres not stated)	> 31.6	16.6	
CCc1cc(C(=O)OC)cn1C(=N)c1ccc(Cl)cc1	> 851	> 851	
C1#CCSCC#CCSC1	> 42.7	> 42.7	
OC(OCC(COC(O)C(Br)Br)(COC(O)C(Br)Br)COC(O)C(Br)Br)C(Br)Br (configuration not stated)	> 100	> 100	
Cc1nnc(N)nc1C/C=C/C(Sc1ccc(Cl)cc1)c1ccccc1 (configuration not stated)	> 9.77	3.98	
COc1ccc(-c2csc(=Nc3ccccc3)n2CCCN(C)C)cc1	> 200	16.2	
CC(C)(C)c1cc(CCCCCCCC2(CCCCCCCc3cc(C(C)(C)C)cc(C(C)(C)C)c3)OC(COCCOCCCCCC#N)C(COCCOCCCCCC#N)O2)cc(C(C)(C)C)c1 (configuration not stated)			inactive
CN(Cc1cnc2nc(N)nc(N)c2n1)c1ccc(C(=O)NC(CCC(=O)NCC(P(=O)(O)O)P(=O)(O)O)C(=O)O)cc1 (configuration not stated)	> 200	1.23	
Cn1ncnc1CCc1ccccc1	> 32.4	> 32.4	
Cc1cc(O)c2c(=O)c3ccccc3[nH]c2c1	> 200	40.7	
COc1ccc(/C=C(\Cl)c2ccc(OC)c(OC)c2)cc1OC	56.2	> 200	
CN1CCC/C1=C1\C(=O)c2cccn2C1=O	> 200	> 200	
CCCCCCOP(=O)(OCCCCCC)C(NC(=O)OCC)(C(F)(F)F)C(F)(F)F	> 200	21.9	
COc1ccc2nc3c([N+](=O)[O-])ccc(NCCCN(C)C)c3c(NCCCN(C)C)c2c1	> 200	0.229	
CC(C)(C)OC(=O)NC(Cc1ccc(OCc2ccccc2)cc1)C(=O)NC(CCCCNC(=O)OCc1ccccc1)C(=O)O (configuration not stated) (Boc-Tyr(Bn)-Lys(Cbz)-OH; configuration not given here)	> 200	75.9	
Cn1nc(-c2ccccc2)c2c(/C=C/c3ccccc3)onc2c1=O			inactive
CCOC(=O)C1Cc2ccc(OC)cc2C2=CC(=O)CCC21 (configuration not stated)	> 166	> 166	
CCOC(=O)/C=C1\Oc2ccccc2C1(C)O (configuration not stated)	> 562	> 562	
O=C(CCN1CCC(CCO)CC1)Nc1ccc2c(c1)C(=O)c1ccc(NC(=O)CCN3CCC(CCO)CC3)cc1C2=O	> 200	43.7	

Structure (SMILES)	EC50 [µM]	IC50 [µM]	outcome
CC1=N/C(=C\c2ccco2)C(=O)O1	> 537	> 537	
NCCSC12CC3CC(CC(C3)C1)C2	> 200	67.6	
Cc1cn(C2C[C@@H]3C(COC(c4ccc([N+](=O)[O-])cc4)N3O)O2)c(=O)[nH]c1=O (some centres not stated)	> 200	> 200	
Cc1ccc(C)c(NC(=O)CCc2nc(=S)[nH][nH]2)c1			inactive
CC(=O)O[C@H]1CC[C@@]2(C)C(=CC[C@@H]3C2CC[C@@]2(C)C3CC[C@@H]2c2ncc(C)s2)C1 (some centres not stated)	> 60.3	> 60.3	
Oc1ccc(-c2nc(-c3ccccc3)c(-c3ccccc3)[nH]2)cc1	> 200	26.9	
Cc1nc2ccccc2c(=O)n1Nc1ccc(C(=O)O)cc1			inactive
CCCC(=O)[O-].N.N.N.N.N.[Co+3].[O-][Cl+3]([O-])([O-])[O-]			inactive
CC1(Br)C(=O)NC(=O)N(C2C=CC(CO)O2)C1N=[N+]=[N-] (configuration not stated)	0.724	7.24	
CC(=O)Oc1ccc(/C=C/C(=O)O[C@@H](C)[C@H](C)OC(=O)/C=C/c2ccc(OC(C)=O)c(OC(C)=O)c2)cc1OC(C)=O	> 100	5.62	
COc1cc(/C=C2\CCC(C)C3=C(c4cc(OC)c(OC)c(OC)c4)C(C#N)=C(N)OC32)cc(OC)c1OC (configuration not stated)			inactive
Cc1ccc(NC(=O)C(=O)C(C#N)c2nc(-c3ccc(-c4ccccc4)cc3)cs2)c(C)c1 (configuration not stated)	> 66.1	> 66.1	
CCCCc1c2c([n+]([O-])c3c1CCCC3)CCCC2	> 138	22.4	
NS(=O)(=O)c1ccc(N2C(=O)C(=O)N(c3ccccc3)C2=S)cc1	> 200	19.5	
O=C1CC(CC(O)C2CCCCC2O)CC(=O)N1 (configuration not stated)	> 200	> 200	
COc1ccc(NC(=O)c2oc3cc(O)ccc3c(=O)c2C)c([N+](=O)[O-])c1	> 676	245	
c1ccc2c(Nc3ncco3)cccc2c1	> 200	162	
N#CCCN(C1=NN(C(=O)CC(=O)Nc2cccc(Cl)c2)C(c2ccccc2)C1)c1ccccc1Cl (configuration not stated)	> 69.2	> 69.2	
CC(=O)c1c(O)ccc2c1CC(CC=O)O2 (configuration not stated)	> 589	22.9	
CCCCCCCCC/C=C(/CC(=O)O)C(=O)O	> 708	> 708	
COCC1OC2(CCC[C@@H]2O)O[C@H]1COC (some centres not stated)			inactive

Structure (SMILES)	EC50 [µM]	IC50 [µM]	outcome
[CH3][Sn]1([CH3])[O]C(=O)CCN=Cc2c(ccc3ccccc23)[O][Sn]([CH3])([CH3])[O]C(=O)CCN=Cc2c(ccc3ccccc23)[O]1	> 200	20	
Cc1ccc(S(=O)(=O)NC(CCC(=O)NNc2ccccc2)C(=O)NNc2ccccc2)cc1 (configuration not stated)	> 200		
CN(C)CCN(C)CC1COC(C)(C)O1 (configuration not stated)			inactive
N#Cc1c(N)c(C(=O)Nc2ccccc2)n2c1CCC2	> 200	> 200	
c1ccc2c(c1)c1ccccc1n2-n1c2ccccc2c2ccccc21	> 200	132	
CC12Nc3ccccc3N1C(=O)c1ccccc12 (configuration not stated)	> 200	107	
CCCCCC=C(c1cc(C)c(OC)c(Br)c1)c1cc(C)c(OC)c(Br)c1	> 200	15.5	
O=S(=O)(c1ccccc1)n1c2ccc(Br)cc2c2nc3ccccc3nc21	> 200	> 200	
CN(C)CCNC(=O)c1cccc2c1Oc1cccc([N+](=O)[O-])c1O2	> 200	22.4	
CCC(C)CC(C)CC(C)/C=C(\C)C1=C(C)CC(C)(O)O1 (configuration not stated)			inactive
CCN(CC)CCOc1ccc(/C(C#N)=C/c2ccc(OCCN3CCCCC3)cc2)cc1	> 200	0.832	
CCOC(=O)CC(=O)ON(C)C(=O)Cc1ccccc1	> 251	> 251	
O=C(NCCNCCNCCNC(=O)c1cc(-c2ccccc2)nc2ccccc12)c1cc(-c2ccccc2)nc2ccccc12	> 20	3.31	
CCCc1cc(=O)oc2c3c(ccc12)OC(C)(C)[C@H](OC(=O)C12CCC(C)(C(=O)O1)C2(C)C)[C@@H]3OC(=O)C12CCC(C)(C(=O)O1)C2(C)C (some centres not stated)	0.891	> 200	
COc1ccc2c(c1)[n+]([O-])c(/C(C)=N/NC(N)=S)c(C)[n+]2[O-]	> 209	102	
Cc1nc(-c2cc3c(ccc4ccccc43)oc2=O)cs1	> 100	95.5	
Cc1ccc(S(=O)(=O)OC(C=O)C(O)C(O)COC(c2ccccc2)(c2ccccc2)c2ccccc2)cc1 (configuration not stated)	> 24.5	> 24.5	
COc1cc2cc(C(=O)N3CC(CCl)c4ccc([N+](C)(C)Cc5ccc([N+](=O)[O-])cc5)cc43)[nH]c2c(OC)c1OC (configuration not stated)	> 200	7.76	
Cc1cc2c(cc1C)[n+](=O)c(C(=O)CC(=O)C(=O)Nc1ccccc1C(C)C)c(C)n2[O-]	> 575	> 575	
CCOC(=O)/C(ON)=C(/CC/C(C(=O)OC)=C(\ON)C(=O)OCC)C(=O)OC	155	617	
O=c1[nH]c2[nH]c(-c3ccc(Br)cc3)cc2c2ccccc12	> 200	> 200	

Structure (SMILES)	EC50 [µM]	IC50 [µM]	outcome
CC(C)C(OC(=O)c1cc(NC(=S)c2cccn2C)ccc1Cl)C(C)C	0.234	18.2	
CN(C)C(=S)/N=c1\ssc(=Nc2ccccc2)n1C			inactive
CCOC(=O)/C(C#N)=C\c1ccc([N+](=O)[O-])o1	> 1050	> 1050	
NC(=O)c1c(NC=O)ncn1C1OCC(O)C(O)C1O (configuration not stated)	> 200	> 200	
NC(=O)c1c[se]c(C2OC(CO)C(O)C2O)n1 (configuration not stated)			inactive
CC(=O)c1ccc(N=NN2CCCC2)cc1	> 200	89.1	
O=C(NNC(=S)Nc1ccccc1)C12CC3CC(CC(C3)C1)C2	> 200	34.7	
CCOC(=O)C(CN1CCN(CC(NC=O)(C(=O)OCC)C(=O)OCC)CC1)(NC=O)C(=O)OCC	> 200	35.5	
COc1cc2c(c3oc(=O)ccc13)[C@@H](OC(=O)C13CCC(C)(C(=O)O1)C3(C)C)[C@@H](OC(=O)C13CCC(C)(C(=O)O1)C3(C)C)C(C)(C)O2 (some centres not stated)	0.324	> 200	
CC(C)P(=S)(OCc1ccccc1)C(C)C	> 200	126	
CC(C)(CO)NC(=O)c1cccc(C(=O)NC(C)(C)CO)c1Br	> 200	> 200	
Cc1ccc(S(=O)(=O)N(/N=C(\N)Oc2ccc(Cl)cc2)C(=N)Oc2ccc(Cl)cc2)cc1	> 100	> 100	
Cc1ccc(C(=O)N(C(C)C)C(C)C)cc1N=NN(C)C	> 123	97.7	
N#CCCC[P+](c1ccccc1)(c1ccccc1)c1ccccc1	> 200	> 200	
COc1cccc2c1C(=O)c1c(O)c3c(c(O)c1C2=O)C[C@@](O)(C(C)O)C[C@@H]3OC1CC(N)C(O)C(C)O1 (some centres not stated)			inactive
Cc1ccc(S(=O)(=O)OCC/C(=C\[Si](C)(C)C)c2ccccc2)cc1			inactive
CCOC(=O)c1ccc(N2CN3c4ccccc4CCC3C2c2c[nH]c(=O)[nH]c2=O)cc1 (configuration not stated)	> 69.2	> 69.2	
CC(C)(C)OC(=O)CC(NC(=O)OC(C)(C)C)C(=O)N[C@@H]1CCCC[C@H]1C(=O)OCc1ccccc1 (some centres not stated)	> 200	10.5	
C[C@@]1(O)C2/C(=N/O)C3CC1(c1ccccc1)CC(/C3=N/O)C2c1ccccc1 (some centres not stated)	> 100	> 100	
C/C(=N/NC(=S)Nc1ccc([N+](=O)[O-])cc1)c1cccc(/C(C)=N\NC(=S)Nc2ccc([N+](=O)[O-])cc2)n1	> 200	0.479	
